Each structure is given as a SMILES string. Where two headings read alike, the source gives them in different places. Some results are limits rather than exact numbers.

One series has as its target T1, COX-1 (Ovis aries, UniProt P05979).
T1 sequence (P05979 25-600): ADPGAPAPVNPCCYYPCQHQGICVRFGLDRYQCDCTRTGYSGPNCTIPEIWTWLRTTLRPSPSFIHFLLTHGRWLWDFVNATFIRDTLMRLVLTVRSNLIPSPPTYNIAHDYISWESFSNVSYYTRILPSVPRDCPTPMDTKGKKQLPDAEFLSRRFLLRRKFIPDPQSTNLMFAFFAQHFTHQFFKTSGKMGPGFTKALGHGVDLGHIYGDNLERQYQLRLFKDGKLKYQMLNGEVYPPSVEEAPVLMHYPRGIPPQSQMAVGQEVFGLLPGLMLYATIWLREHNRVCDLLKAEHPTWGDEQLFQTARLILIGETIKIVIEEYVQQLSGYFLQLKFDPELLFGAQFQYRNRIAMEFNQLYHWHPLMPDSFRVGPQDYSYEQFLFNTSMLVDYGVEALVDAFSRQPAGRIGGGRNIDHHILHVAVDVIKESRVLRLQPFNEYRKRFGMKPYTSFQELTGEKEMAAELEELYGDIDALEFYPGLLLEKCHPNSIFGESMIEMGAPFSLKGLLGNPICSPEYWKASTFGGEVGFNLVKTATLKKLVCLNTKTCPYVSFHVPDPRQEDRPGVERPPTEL
Description: Inhibition of COX-1 activity by quantification of PGE2. It counts as biochemical.

In another series the target is T2, SIRT1 (Homo sapiens, UniProt Q96EB6).
T2 sequence (Q96EB6 1-747): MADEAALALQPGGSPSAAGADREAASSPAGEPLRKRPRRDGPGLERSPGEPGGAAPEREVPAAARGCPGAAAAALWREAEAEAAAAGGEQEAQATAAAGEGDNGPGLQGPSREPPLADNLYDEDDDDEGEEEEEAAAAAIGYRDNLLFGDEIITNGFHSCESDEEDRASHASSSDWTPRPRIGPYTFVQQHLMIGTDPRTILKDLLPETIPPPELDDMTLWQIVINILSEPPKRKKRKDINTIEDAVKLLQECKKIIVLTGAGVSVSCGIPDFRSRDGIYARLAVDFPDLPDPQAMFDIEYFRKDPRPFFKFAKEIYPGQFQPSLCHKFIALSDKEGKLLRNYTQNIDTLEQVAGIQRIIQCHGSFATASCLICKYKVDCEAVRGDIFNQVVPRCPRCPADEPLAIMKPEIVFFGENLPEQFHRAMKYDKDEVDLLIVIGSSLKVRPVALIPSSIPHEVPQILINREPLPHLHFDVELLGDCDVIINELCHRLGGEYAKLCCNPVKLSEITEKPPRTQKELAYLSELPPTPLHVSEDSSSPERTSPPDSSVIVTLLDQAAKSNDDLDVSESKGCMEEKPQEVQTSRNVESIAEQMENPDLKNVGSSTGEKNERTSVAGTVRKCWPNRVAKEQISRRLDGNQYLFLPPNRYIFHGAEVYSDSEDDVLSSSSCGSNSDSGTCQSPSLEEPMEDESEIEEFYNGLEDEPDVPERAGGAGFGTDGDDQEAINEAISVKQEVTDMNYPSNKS
The series is described as follows: ITC titration of resveratrol into SIRT1. It counts as binding. Particulars: 20 μM SIRT1, no substrates. A general note: ITC needs no label: the signal is the heat of the interaction.

Series [1] addresses T3, QR2 (Homo sapiens, UniProt P16083).
T3 sequence (P16083 1-231): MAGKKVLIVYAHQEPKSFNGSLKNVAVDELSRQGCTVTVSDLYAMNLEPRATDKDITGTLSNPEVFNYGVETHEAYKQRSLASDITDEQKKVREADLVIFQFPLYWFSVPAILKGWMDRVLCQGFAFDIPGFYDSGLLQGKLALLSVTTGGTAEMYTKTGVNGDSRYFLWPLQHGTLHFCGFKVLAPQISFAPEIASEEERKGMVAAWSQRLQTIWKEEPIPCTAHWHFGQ
Description: QR2 steady-state kinetics. In kind it is biochemical. The conditions noted are these: for Ki: read-out: QR2 Ki, Table 1 value; for Inhibition of QR2: up to 100 μM compound, 5 nM QR2, 100 μM NMeH, 30 μM menadione.

Series [2] has as its target T3, QR2. Description: ITC titration of resveratrol into QR2. It counts as binding.
The next series relates to QR1. The series is described as follows: Effect of resveratrol on QR1 activity in Hepa 1c1c7 cells. It counts as cell-based. The conditions noted are these: Hepa 1c1c7 mouse hepatoma cells, 48 h.
The next series addresses T4, COX-2 (Homo sapiens, UniProt P35354).
T4 sequence (P35354 18-604): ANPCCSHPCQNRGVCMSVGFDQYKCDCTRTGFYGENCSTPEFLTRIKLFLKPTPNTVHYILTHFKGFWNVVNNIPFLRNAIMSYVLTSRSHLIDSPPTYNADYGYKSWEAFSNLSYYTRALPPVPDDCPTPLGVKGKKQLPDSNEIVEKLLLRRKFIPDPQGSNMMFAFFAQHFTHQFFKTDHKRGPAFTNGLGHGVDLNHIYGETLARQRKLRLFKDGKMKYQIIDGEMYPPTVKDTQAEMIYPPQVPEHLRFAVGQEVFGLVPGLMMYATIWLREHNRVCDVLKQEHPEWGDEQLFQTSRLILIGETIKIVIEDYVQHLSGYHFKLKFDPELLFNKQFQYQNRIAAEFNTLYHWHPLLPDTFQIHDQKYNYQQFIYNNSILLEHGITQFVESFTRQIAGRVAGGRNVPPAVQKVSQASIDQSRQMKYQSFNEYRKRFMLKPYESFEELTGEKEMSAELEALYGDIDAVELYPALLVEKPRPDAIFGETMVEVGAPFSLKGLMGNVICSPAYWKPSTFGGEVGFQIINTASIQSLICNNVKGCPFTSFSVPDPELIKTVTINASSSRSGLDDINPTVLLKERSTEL
Description: Inhibition of COX-2 activity by quantification of PGE2. It counts as biochemical.

For series [3] the following is noted: after an oral dose of pure resveratrol; cited from earlier work.

Broadly, the IC50 is the concentration that gives 50% inhibition. The compound `Oc1ccc(/C=C/c2cc(O)cc(O)c2)cc1` [Resveratrol, 3,5, 4′-trans-trihydroxystilbene] showed an IC50 at COX-1 of 1.1 ± 0.44 µM. Also, the “Binding to SIRT1 by ITC” value on SIRT1 is recorded as “no detectable change in heat”. For the same compound, the “QR2 Ki, uncompetitive against menadione” value on QR2 [1] (varied menadione, NMeH 100 μM) came out at 0.9 ± 0.1 µM. Moreover, the “ΔH of binding to QR2” value on QR2 [2] was “–14 kcal/mol”. At QR2 [2] (as printed in Figure 6 legend), the “TΔS of binding to QR2” value is on record as 3.9 kcal/mol. For the same compound, the “N (ITC binding stoichiometry, QR2)” value at QR2 [2] (single binding site model) is 0.9. The “Effect on QR1 activity” value in the series with QR1 is recorded as “only a weak activator”.
On to `O=C(O)[C@H]1O[C@@H](Oc2cc(O)cc(/C=C/c3ccc(O)cc3)c2)[C@H](O)[C@@H](O)[C@@H]1O` [Resveratrol-3-O-glucuronide, resveratrol-3-O-glucuronide], for which the IC50 at COX-1 (read-out: COX-1 IC50, PGE2 produced from arachidonic acid) came out at 150 ± 5.8 µM.
The Ki is a measure of affinity in units of concentration, obtained from inhibition or displacement. Take `O=S(=O)(O)Oc1cc(O)cc(C=Cc2ccc(O)cc2)c1` [Resveratrol-3-O-sulfate, resveratrol-3-O-sulfate]: the IC50 on COX-2 is above 300 µM. In addition, inhibition at COX-1 was half-maximal at 68 ± 2.8 µM (IC50). For the same compound, on QR2 [1], the Ki was above 100 µM and the “Inhibition of QR2” value is recorded as “cannot detect any inhibitory activity”.
`O=S(=O)(O)Oc1ccc(C=Cc2cc(O)cc(O)c2)cc1` [Resveratrol-4′-O-sulfate, resveratrol-4′-O-sulfate]: the results for the IC50 against COX-2 and on COX-1 were 2.5 ± 0.35 µM and 5.1 ± 0.55 µM, respectively. For the same compound, in series [3], the Human plasma concentration was 2 to 10 µM. Besides, the Ki at QR2 [1] was above 100 µM. Also, the “Inhibition of QR2” value on QR2 [1] is “cannot detect any inhibitory activity”.

These data come from article PMC3265359 (Biochemical Journal, 2010).
